Assay results: US10215746B2, “Methods for diagnosis and intervention of hepatic disorders” (The Regents of the University of Colorado, priority 2005, dated 2019)
Read-outs that look alike come from different tables or passages of the source.

What was measured:
[1] = Dissolution of cholate for oral solution; format: physicochemical; conditions: aqueous sodium bicarbonate
[2] = cited from earlier work
[3] = cited from earlier work; remark: listed apart in the source
[4] = in vivo; cited from earlier work
[5] = single intravenous injection; cited from earlier work
[6] = tested on: chronic hepatitis C; conditions: 90 μg/week vs no treatment; cited from earlier work

## C[C@H](CCC(=O)O)[C@H]1CC[C@H]2[C@@H]3[C@H](O)C[C@@H]4C[C@H](O)CC[C@]4(C)[C@H]3C[C@H](O)[C@]12C [Cholate, cholic acid]
[1]
  dissolution: easily dissolved

## CC1(C)C(/C=C/C=C/C=C/C=C2\N(CCCCS(=O)(=O)O)c3ccc4ccccc4c3C2(C)C)=[N+](CCCCS(=O)(=O)[O-])c2ccc3ccccc3c21 [Indocyanine green]
[2]; administered intravenously
  first-pass hepatic extraction: up to 80%

## CCN(CC)CC(=O)Nc1c(C)cccc1C [Lidocaine]
[3]; lower dose (less than 1 mg/kg such as 0.5 mg/kg) iv
  side effects (sensory symptoms): 30%
[3]; standard dose 1 mg/kg iv over 2 minutes
  side effects (sensory symptoms): 53%
[2]; in vivo
  first pass elimination: up to 81%

## Cc1cc(=O)n(-c2ccccc2)n1C [antipyrine]
[4]
  drug appearing unchanged in the urine: 5%

## O=C[C@H](O)[C@@H](O)[C@@H](O)[C@H](O)CO [galactose]
[5]
  share of total plasma elimination due to distribution and metabolism outside the liver: 40%
  share of total plasma elimination due to hepatic clearance: Approximately 60%

## peginterferon alfa-2a [PegIFN]
[6]
  effect on clinical or histological outcomes: did not affect clinical or histological outcomes
